ChEMBL document CHEMBL1201862, “PubChem BioAssay data set” (2004)
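Step 1: Grow cells in 96-well plates. Step 2: Expose to compound for 48 hours at 5 concentrations. Step 3: Interpolate endpoints linearly; if unreached, use highest concentration. The concentration for 50% growth inhibition is given as GI50.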 The source made the active and inactive calls. Rule as the data show it: active = GI50 up to about 1.1 µM and inactive = higher.

Assays:
Assay in all cases: NCI tumour cell line growth inhibition, 48 h
786-0 = tested on: 786-0
A498 = tested on: A498
A549 = tested on: A549
ACHN = tested on: ACHN
BT-549 = tested on: BT-549
CAKI-1 = tested on: CAKI-1
CCRF-CEM = tested on: CCRF-CEM
COLO 205 = tested on: COLO 205
DU-145 = tested on: DU-145
EKVX = tested on: EKVX
HCC 2998 = tested on: HCC 2998
HCT-116 = tested on: HCT-116
HCT-15 = tested on: HCT-15
HL-60 = tested on: HL-60
HOP-62 = tested on: HOP-62
HOP-92 = tested on: HOP-92
HT-29 = tested on: HT-29
Hs-578T = tested on: Hs-578T
IGROV-1 = tested on: IGROV-1
K562 = tested on: K562
KM12 = tested on: KM12
LOX IMVI = tested on: LOX IMVI
M14 = tested on: M14
MCF7 = tested on: MCF7
MDA-MB-231 = tested on: MDA-MB-231
MDA-MB-435 = tested on: MDA-MB-435
MDA-N = tested on: MDA-N
MOLT-4 = tested on: MOLT-4
Malme-3M = tested on: Malme-3M
NCI-H226 = tested on: NCI-H226
NCI-H23 = tested on: NCI-H23
NCI-H460 = tested on: NCI-H460
NCI-H522 = tested on: NCI-H522
NCI/ADR-RES = tested on: NCI/ADR-RES
OVCAR-3 = tested on: OVCAR-3
OVCAR-4 = tested on: OVCAR-4
OVCAR-5 = tested on: OVCAR-5
OVCAR-8 = tested on: OVCAR-8
PC-3 = tested on: PC-3
RPMI-8226 = tested on: RPMI-8226
RXF 393 = tested on: RXF 393
SF-268 = tested on: SF-268
SF-295 = tested on: SF-295
SF-539 = tested on: SF-539
SK-MEL-28 = tested on: SK-MEL-28
SK-MEL-2 = tested on: SK-MEL-2
SK-MEL-5 = tested on: SK-MEL-5
SK-OV-3 = tested on: SK-OV-3
SN12C = tested on: SN12C
SNB-19 = tested on: SNB-19
SNB-75 = tested on: SNB-75
SR = tested on: SR
SW-620 = tested on: SW-620
T47D = tested on: T47D
TK-10 = tested on: TK-10
U-251 = tested on: U-251
UACC-257 = tested on: UACC-257
UACC-62 = tested on: UACC-62
UO-31 = tested on: UO-31

Cn1cnc([N+](=O)[O-])c1Sc1nc(N)nc2c1ncn2[C@H]1C[C@H](O)[C@@H](CO)O1
GI50 (786-0): 3.86 µM (inactive)
GI50 (A498): 5.42 µM (inactive)
GI50 (A549): 4.63 µM (inactive)
GI50 (ACHN): 3.52 µM (inactive)
GI50 (BT-549): 5.62 µM (inactive)
GI50 (CAKI-1): 4.05 µM (inactive)
GI50 (CCRF-CEM): 2.88 µM (inactive)
GI50 (COLO 205): 4.63 µM (inactive)
GI50 (DU-145): 1.21 µM (inactive)
GI50 (EKVX): 9.18 µM (inactive)
GI50 (HCC 2998): 13.8 µM (inactive)
GI50 (HCT-116): 2.86 µM (inactive)
GI50 (HCT-15): 4.17 µM
GI50 (HL-60): 4.86 µM (inactive)
GI50 (HOP-62): 0.971 µM (active)
GI50 (HOP-92): 17.3 µM (inactive)
GI50 (HT-29): 3.54 µM (inactive)
GI50 (Hs-578T): 10.3 µM (inactive)
GI50 (IGROV-1): 5.13 µM (inactive)
GI50 (K562): 2.71 µM (inactive)
GI50 (KM12): 2.77 µM (inactive)
GI50 (LOX IMVI): 0.434 µM (active)
GI50 (M14): 1.16 µM (inactive)
GI50 (MCF7): 2.61 µM (inactive)
GI50 (MDA-MB-231): 3.36 µM (inactive)
GI50 (MDA-MB-435): 2.29 µM (inactive)
GI50 (MDA-N): 4.36 µM (inactive)
GI50 (MOLT-4): 2.43 µM (inactive)
GI50 (Malme-3M): 5.26 µM (inactive)
GI50 (NCI-H226): 7.82 µM (inactive)
GI50 (NCI-H23): 3.91 µM (inactive)
GI50 (NCI-H460): 1.03 µM (active)
GI50 (NCI-H522): 2.57 µM (inactive)
GI50 (NCI/ADR-RES): 1.28 µM (inactive)
GI50 (OVCAR-3): 3.44 µM (inactive)
GI50 (OVCAR-4): 2.99 µM (inactive)
GI50 (OVCAR-5): 3.08 µM (inactive)
GI50 (OVCAR-8): 2.51 µM (inactive)
GI50 (PC-3): 6.84 µM (inactive)
GI50 (RPMI-8226): 1.09 µM (active)
GI50 (RXF 393): 8.32 µM (inactive)
GI50 (SF-268): 1.77 µM (inactive)
GI50 (SF-295): 3.11 µM (inactive)
GI50 (SF-539): 10.2 µM (inactive)
GI50 (SK-MEL-28): 14.5 µM (inactive)
GI50 (SK-MEL-2): 2.45 µM (inactive)
GI50 (SK-MEL-5): 4.08 µM (inactive)
GI50 (SK-OV-3): 0.463 µM (active)
GI50 (SN12C): 5.16 µM (inactive)
GI50 (SNB-19): 62.1 µM (inactive)
GI50 (SNB-75): 5.68 µM (inactive)
GI50 (SR): 1.07 µM (active)
GI50 (SW-620): 6.5 µM (inactive)
GI50 (T47D): 7.52 µM (inactive)
GI50 (TK-10): 3.98 µM (inactive)
GI50 (U-251): 12 µM (inactive)
GI50 (UACC-257): 8.32 µM (inactive)
GI50 (UACC-62): 1.51 µM (inactive)
GI50 (UO-31): 3.43 µM (inactive)

Cc1ccc(C(=N)Nc2ccccc2)cc1
GI50 (786-0): > 100 µM (inactive)
GI50 (A498): > 100 µM (inactive)
GI50 (A549): > 100 µM (inactive)
GI50 (ACHN): > 100 µM (inactive)
GI50 (BT-549): > 100 µM (inactive)
GI50 (CAKI-1): > 100 µM (inactive)
GI50 (CCRF-CEM): 52.2 µM (inactive)
GI50 (COLO 205): 20.9 µM (inactive)
GI50 (DU-145): > 100 µM (inactive)
GI50 (EKVX): > 100 µM (inactive)
GI50 (HCC 2998): 8.13 µM (inactive)
GI50 (HCT-116): > 100 µM (inactive)
GI50 (HCT-15): > 100 µM
GI50 (HL-60): > 100 µM (inactive)
GI50 (HOP-62): > 100 µM (inactive)
GI50 (HOP-92): > 100 µM (inactive)
GI50 (HT-29): 69.7 µM (inactive)
GI50 (Hs-578T): > 100 µM (inactive)
GI50 (IGROV-1): > 100 µM (inactive)
GI50 (K562): > 100 µM (inactive)
GI50 (KM12): > 100 µM (inactive)
GI50 (LOX IMVI): > 100 µM (inactive)
GI50 (M14): > 100 µM (inactive)
GI50 (MCF7): 41.9 µM (inactive)
GI50 (MDA-MB-231): > 100 µM (inactive)
GI50 (MDA-MB-435): > 100 µM (inactive)
GI50 (MDA-N): > 100 µM (inactive)
GI50 (MOLT-4): > 100 µM (inactive)
GI50 (Malme-3M): > 100 µM (inactive)
GI50 (NCI-H226): > 100 µM (inactive)
GI50 (NCI-H23): > 100 µM (inactive)
GI50 (NCI-H460): > 100 µM (inactive)
GI50 (NCI-H522): > 100 µM (inactive)
GI50 (NCI/ADR-RES): > 100 µM (inactive)
GI50 (OVCAR-3): > 100 µM (inactive)
GI50 (OVCAR-4): > 100 µM (inactive)
GI50 (OVCAR-5): > 100 µM (inactive)
GI50 (OVCAR-8): > 100 µM (inactive)
GI50 (PC-3): > 100 µM (inactive)
GI50 (RPMI-8226): > 100 µM (inactive)
GI50 (RXF 393): > 100 µM (inactive)
GI50 (SF-268): > 100 µM (inactive)
GI50 (SF-295): > 100 µM (inactive)
GI50 (SF-539): > 100 µM (inactive)
GI50 (SK-MEL-28): > 100 µM (inactive)
GI50 (SK-MEL-2): > 100 µM (inactive)
GI50 (SK-MEL-5): 89.7 µM (inactive)
GI50 (SK-OV-3): > 100 µM (inactive)
GI50 (SN12C): > 100 µM (inactive)
GI50 (SNB-19): > 100 µM (inactive)
GI50 (SNB-75): > 100 µM (inactive)
GI50 (SR): > 100 µM (inactive)
GI50 (SW-620): > 100 µM (inactive)
GI50 (T47D): > 100 µM (inactive)
GI50 (TK-10): > 100 µM (inactive)
GI50 (U-251): > 100 µM (inactive)
GI50 (UACC-257): 38 µM (inactive)
GI50 (UACC-62): > 100 µM (inactive)
GI50 (UO-31): > 100 µM (inactive)
